Measurements reported in ChEMBL document CHEMBL1201862, “PubChem BioAssay data set” (2004).
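Values below derive from 48-hour exposures of cells grown in 96-well plates, with endpoints linearly interpolated between the two concentrations bracketing the appropriate inhibition level. GI50 is the concentration that inhibits growth by half.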 Active and inactive are the calls of the source. Rule as the data show it: active = GI50 up to about 1.1 µM and inactive = higher.

Experiments:
Test in all cases: DTP human tumour cell line panel, 48 h
HCC 2998 = test system: HCC 2998
COLO 205 = test system: COLO 205
ACHN = test system: ACHN
HT-29 = test system: HT-29
MCF7 = test system: MCF7
CAKI-1 = test system: CAKI-1
RXF 393 = test system: RXF 393
SNB-19 = test system: SNB-19
NCI-H522 = test system: NCI-H522
TK-10 = test system: TK-10
Hs-578T = test system: Hs-578T
A549 = test system: A549
K562 = test system: K562
T47D = test system: T47D
KM12 = test system: KM12
UO-31 = test system: UO-31
Malme-3M = test system: Malme-3M
DU-145 = test system: DU-145
SR = test system: SR

Measured: GI50

COC(=O)c1ccccc1C1CN=NC12Cc1ccc3c(c1C2=O)CCC3 (stereo not given)
inactive: HCC 2998 > 100 µM | COLO 205 > 100 µM | ACHN 50.4 µM | HT-29 82 µM | MCF7 34.9 µM | CAKI-1 > 100 µM | RXF 393 67.9 µM | SNB-19 65 µM | NCI-H522 6.55 µM | TK-10 > 100 µM | Hs-578T 74.3 µM | A549 > 100 µM | K562 7.23 µM | T47D 19.2 µM | KM12 42.1 µM | UO-31 68.5 µM | Malme-3M 21.8 µM | DU-145 > 100 µM

O=c1c2cc(S(=O)(=O)O)ccc2nc(COc2ccc(Oc3ccc(Cl)cc3Cl)cc2)n1-c1ccc(Cl)cc1Oc1c(Cl)cccc1Cl
inactive: COLO 205 17.5 µM | ACHN 25.1 µM | HT-29 20 µM | MCF7 21.2 µM | CAKI-1 30.3 µM | SNB-19 40.9 µM | NCI-H522 20.7 µM | SR 34 µM | TK-10 29.4 µM | Hs-578T 26.1 µM | A549 23.7 µM | K562 43.2 µM | T47D 46.1 µM | KM12 35 µM | UO-31 18.3 µM | Malme-3M 36.5 µM | DU-145 38 µM

NNC(=O)c1ccc[n+](CCc2ccccc2)c1
inactive: HCC 2998 > 100 µM | COLO 205 > 100 µM | ACHN > 100 µM | HT-29 > 100 µM | MCF7 > 100 µM | CAKI-1 > 100 µM | RXF 393 > 100 µM | SNB-19 > 100 µM | NCI-H522 > 100 µM | TK-10 > 100 µM | Hs-578T > 100 µM | A549 > 100 µM | K562 > 100 µM | T47D > 100 µM | KM12 > 100 µM | UO-31 > 100 µM | Malme-3M > 100 µM | DU-145 > 100 µM

COc1ccc2c(c1)CCC/C2=N\NS(=O)(=O)c1c(C)cc(C)cc1C
inactive: HCC 2998 41.5 µM | COLO 205 23.9 µM | ACHN 27.7 µM | HT-29 20.7 µM | MCF7 37.8 µM | CAKI-1 38.5 µM | SNB-19 41.6 µM | SR 20.2 µM | TK-10 51.4 µM | Hs-578T 30.6 µM | A549 34.9 µM | K562 18.1 µM | T47D 16.5 µM | KM12 16 µM | UO-31 28.9 µM | Malme-3M 24.4 µM | DU-145 25.6 µM

CC(N)(CC(O)(C(F)(F)Cl)C(F)(F)Cl)C(=O)O (stereo not given)
inactive: HCC 2998 > 10 µM | COLO 205 > 10 µM | ACHN > 10 µM | HT-29 > 10 µM | MCF7 > 10 µM | CAKI-1 > 10 µM | SNB-19 > 10 µM | NCI-H522 > 10 µM | SR > 10 µM | TK-10 > 10 µM | Hs-578T > 10 µM | A549 > 10 µM | K562 > 10 µM | T47D > 10 µM | KM12 > 10 µM | UO-31 > 10 µM | Malme-3M > 10 µM | DU-145 > 10 µM

O=C(c1cc(Cl)cc(Cl)c1)N(C(=O)N1CCN(c2ccccc2)CC1)c1ccccc1
inactive: HCC 2998 51.9 µM | COLO 205 17.3 µM | ACHN 72.9 µM | HT-29 25.6 µM | MCF7 29.9 µM | CAKI-1 33.1 µM | RXF 393 37 µM | SNB-19 53.3 µM | NCI-H522 16.4 µM | TK-10 54.6 µM | Hs-578T 56.1 µM | A549 23.2 µM | K562 10.5 µM | T47D 18.1 µM | KM12 23.5 µM | UO-31 18.7 µM | Malme-3M 47 µM | DU-145 80.9 µM

C/C(=N/NC(=S)N1CCN(C(=S)N/N=C(/C)c2ccccn2)CC1)c1ccccn1
inactive: HCC 2998 22.5 µM | COLO 205 4.16 µM | ACHN 2.52 µM | HT-29 7.33 µM | MCF7 5.24 µM | CAKI-1 6.56 µM | RXF 393 3.52 µM | SNB-19 11.7 µM | NCI-H522 7.64 µM | TK-10 4.84 µM | Hs-578T > 38 µM | A549 9.12 µM | K562 16.3 µM | T47D 3.52 µM | KM12 16.5 µM | UO-31 2.69 µM | Malme-3M 4.6 µM | DU-145 5.86 µM

NC1=Nc2cc(Cl)ccc2Sc2nc3ccccc3n21
inactive: HCC 2998 > 100 µM | COLO 205 2.5 µM | ACHN > 100 µM | HT-29 4.53 µM | MCF7 > 59.2 µM | CAKI-1 > 100 µM | SNB-19 22.2 µM | NCI-H522 3.92 µM | SR 2.64 µM | TK-10 > 88.9 µM | Hs-578T > 72.3 µM | A549 > 24.2 µM | K562 3.47 µM | T47D > 33.8 µM | KM12 > 100 µM | UO-31 > 100 µM | Malme-3M > 100 µM | DU-145 > 100 µM

O=c1c2c(nc3[nH]ccn13)CCC2
inactive: COLO 205 > 10 µM | ACHN > 10 µM | HT-29 > 10 µM | MCF7 > 10 µM | CAKI-1 > 10 µM | RXF 393 > 10 µM | SNB-19 > 10 µM | SR > 10 µM | TK-10 > 10 µM | Hs-578T > 10 µM | A549 > 10 µM | K562 > 10 µM | T47D > 10 µM | KM12 > 10 µM | UO-31 > 10 µM | Malme-3M > 10 µM | DU-145 > 10 µM

O=C(O)C1C(C(=O)Nc2ccc3c(c2)Cc2ccccc2-3)C2(Cl)C(Cl)=C(Cl)C1(Cl)C2(Cl)Cl (stereo not given)
inactive: HCC 2998 20.6 µM | COLO 205 17.6 µM | ACHN 30.3 µM | HT-29 20.3 µM | MCF7 22.5 µM | CAKI-1 41.9 µM | RXF 393 20.5 µM | SNB-19 36 µM | NCI-H522 18.6 µM | TK-10 27.2 µM | Hs-578T 19.9 µM | A549 33.3 µM | K562 2.6 µM | T47D 32.1 µM | KM12 18.7 µM | UO-31 22.5 µM | Malme-3M 20.6 µM | DU-145 31.1 µM

Brc1cccc(Nc2nc(-c3cccs3)nc3ccc(Br)cc23)c1
inactive: HCC 2998 20.2 µM | COLO 205 33 µM | ACHN 27.7 µM | HT-29 17.1 µM | MCF7 14.2 µM | CAKI-1 23.1 µM | SNB-19 31.1 µM | NCI-H522 19 µM | SR 1.48 µM | TK-10 24.7 µM | Hs-578T 38.8 µM | A549 29.5 µM | K562 38.2 µM | T47D 9.89 µM | KM12 18 µM | UO-31 47 µM | Malme-3M 25.4 µM | DU-145 36.1 µM
